Experimental data as given in PMC8743659, “C1632 suppresses the migration and proliferation of non‐small‐cell lung cancer cells involving LIN28 and FGFR1 pathway” (Journal of Cellular and Molecular Medicine, 2021).
Entries after “also recorded” stand apart in the source; their conditions may differ.

What was measured:
[1] = system: A549 cells; experiment: Cell adhesion assay; assay type: cell-based, human; conditions: A549, fibronectin-coated plate, concentration-dependent
Protocol: (§1) The cell adhesion assay was performed as indicated previously.[38] Briefly, the 96‐well plate was coated with human fibronectin (Millipore), and then cells were seeded into the 96‐well plate and cultured for another 1 h at 37°C in a 5% CO2 incubator. Finally, rinsing the plate before fixed with 10% formalin and stained with crystal violet. As followed, wash the plate with ddH2O and add 100 μl acetic acid (33%) into the plate to dissolve the crystal violet. The absorbance at 560 nm was detected by Synergy H1 Multi‐Mode Reader (BioTek). Relative number of cells attaching to extracellular matrix was evaluated using the following equation: mean OD of treated cells/mean OD of control cells.

[2] = system: A549R cells; experiment: Cell adhesion assay; assay type: cell-based, human; conditions: fibronectin-coated plate, concentration-dependent
Protocol: as §1

[3] = system: A549 cells; experiment: SA-β gal staining assay; assay type: cell-based, human; conditions: A549, 15, 30 and 60 mg/L, 5 days
Protocol: (§2) The assay was set up following the β‐galactosidase (SA‐β gal) staining Kit, which was obtained from Sigma. In brief, cells were washed once with PBS and fixed with stationary liquid provided in the kit at room temperature for 15 min. Next, the cells were incubated overnight at 37°C in dark with the 1 ml working solution containing 0.05 mg/ml 5‐bromo‐4‐chloro‐3‐indolyl‐b‐d‐galactopyranoside (X‐gal) and observed under a normal light microscope (Nikon).

[4] = system: A549R cells; experiment: SA-β gal staining assay; assay type: cell-based, human; conditions: A549R, 15, 30 and 60 mg/L, 5 days
Protocol: as §2

[5] = system: LIN28; experiment: qPCR of LIN28 mRNA in NSCLC cells; assay type: cell-based, human; conditions: A549 and A549R cells, 15, 30 and 60 mg/L, 5 days; especially in A549R
Protocol: Total RNA was extracted using RNAiso Plus (Takara) according to the manufacturer's instructions. cDNA was synthesized using PrimeScript II first‐strand cDNA Synthesis Kit (Takara), followed by amplification with RealStar Power SYBR Mixture (GenStar). miRNAs were quantified using the stem‐loop method, and U6 snRNA was adopted as internal control. Specific primer sequences were designed as previously reported.[40] qPCR was carried out with a LightCycler 480 Real‐Time PCR system (Roche). Data were analysed using the comparative Ct (2−ΔΔCt) method.[41] All experiments were performed in three independent experiments. qPCR primers for mRNA detection were as follows: GAPDH‐forward 5′‐[…]‐3′; GAPDH‐reverse 5′‐[…]‐3′; LIN28A‐forward 5′‐[…]‐3′; LIN28A‐reverse 5′‐GCGGTCATGGACA GGAAGCC‐3′; LIN28B‐forward 5′‐[…]‐3′; LIN28B‐reverse 5′‐[…]‐3′.

[6] = system: A549R xenograft tumours; experiment: NSCLC A549R xenograft model; assay type: in vivo, mice
Protocol: A total of 1.0 × 10^6 A549R cells were inoculated subcutaneously into the dorsal flank of the nude mice in 100 µl phosphate‐buffered saline (PBS). Mice were randomly divided into control and C1632 treatment groups (n = 4 per group). Mice were i.p. injected every other day for 18 days (A549R) at a dose of 30 mg/kg in 100 µl PBS per mouse. The tumours were resected, and their size was estimated from the measurements of weight or the longest diameter across the tumour and the corresponding perpendicular diameter.

[7] = system: A549 cells; experiment: Edu staining assay; assay type: cell-based, human; conditions: A549, 15, 30 or 60 mg/L, 5 days, dose-dependent
Protocol: (§3) Edu staining assay was carried out according to Edu staining Kit (Beyotime). First, A549 or A549R cells were seeded in 6‐well plates and cultured in RPMI medium 1640 containing 10% FBS, then treated with C1632 (15, 30, or 60 mg/L) for 5 days. Subsequently, cells were incubated with Edu for 3 h, fixed with 4% paraformaldehyde for 15 min, and permeated with 0.3% Triton X‐100 for another 15 min. Then cells were incubated with the Click Reaction Mixture provided by Edu staining Kit for 30 min at room temperature in dark and then stained with DAPI. Finally, the stained cells were scanned and imaged under Nikon Ti microscope.

[8] = system: A549R cells; experiment: Edu staining assay; assay type: cell-based, human; conditions: A549R, 15, 30 or 60 mg/L, 5 days, dose-dependent
Protocol: as §3

[9] = system: focal adhesion kinase (FAK); experiment: Immunofluorescence assay of FAK; assay type: cell-based, human; conditions: A549R cells, 5 days, concentration-dependent
Protocol: Performing the immunofluorescence (IF) assay as previously described.[39] Briefly, cells were seeded to slide, fixed with 4% paraformaldehyde, and permeabilized using 0.5% Triton X‐100. Next, cells were incubated with primary antibodies against FAK (CST), followed by incubating with secondary antibodies (DyLight 488‐conjugated anti‐mouse). DAPI was used to stain the nuclear. The fluorescence image was captured by using Nikon Ti microscope and the quantitative analysis was carried out by ImageJ.

[10] = system: focal adhesion kinase (FAK); experiment: Western blot of p-FAK; assay type: cell-based, human; conditions: A549 and A549R cells, 5 days
Protocol: The total cell protein was extracted and denaturized at 95°C for 10 min. Samples were separated in SDS‐PAGE gel, then transferred to a PVDF membrane. Then this membrane was blocked with 5% non‐fat milk (solved in TBST) for 2.5 h at room temperature. Blots were probed with relevant primary antibodies against FGFR1 (CST), p‐FGFR1 (CST), MAPK (CST), p‐MAPK (CST), FAK (CST), p‐FAK (CST), MMP‐9 (CST), LIN28B (CST), GAPDH (CST), and β‐actin (proteintech) overnight at 4°C, respectively. Then the lanes were detected with HRP‐conjugated secondary antibodies and visualized using WESTAR SUPERNOVA kit (CYANAGEN).

[11] = system: A549 cells; experiment: MTT cell viability assay; assay type: cell-based, human; conditions: A549, high dose 60 mg/L
Protocol: (§4) The cell viability of MRC5, A549, and A549R were assessed by the 3‐(4,5‐dimethylthiazol‐2‐yl)‐2,5‐diphenyltetrazolium bromide (MTT) assay.[39] Cells were treated with indicated concentration of C1632 or 0.01% DMSO (Control) for 48 h before 20 μl/well MTT (0.5 mg/ml) was added for another 4 h. The reaction product formazan was dissolved in 100 μl DMSO and the absorbance at 560 nm was determined by the spectrophotometer (DTX880, Beckman Coulter).

[12] = system: MRC5 cells; experiment: MTT cell viability assay; assay type: cell-based, human; conditions: MRC5, high dose 60 mg/L
Protocol: as §4

[13] = system: A549R cells; experiment: MTT cell viability assay; assay type: cell-based, human; conditions: high dose 60 mg/L
Protocol: as §4

SMILES: CC(=O)N(C)c1cccc(-c2ccc3nnc(C)n3n2)c1 [C1632]
- cell adhesion to the matrix [1]: significant decrease
- cell adhesion to the matrix [2]: significant decrease
- senescence (β-gal positive cells) [3]: did not induce the senescence; also recorded: did not significantly increase
- senescence (β-gal positive cells) [4]: induce the senescence
- LIN28 mRNA levels [5]: decreased
- body weight of mice ([6]; 30 mg/kg every 2 days for 18 days): did not affect
- growth of xenograft tumour cells (tumour volume over treatment period) ([6]; 30 mg/kg every 2 days for 18 days, time-dependent): suppressed
- tumour size (weight), mean ± SD ([6]; 30 mg/kg every 2 days, after 18 days, n = 4, untreated 2.35 ± 0.43 g, p < 0.05): 1.36 ± 0.27 g
- DNA replication [7]: significant inhibition
- DNA replication [8]: significant inhibition
- distribution and foci formation of FAK [9]: reduced
- phosphorylation of FAK [10]: efficiently decreased
- cell viability [11]: decreased the viability
- cytotoxicity on normal foetal lung fibroblast cells [12]: almost had no cytotoxicity
- cell viability [13]: decreased the viability
